In patent US5475007A, “1,2,3,4-tetrahydroquinoline-2,3,4-trione-3 or 4-oximes and the use thereof” (priority 1993, dated 1995):
Like-named read-outs stand apart in the source and are kept apart here.

Key:
[1] = target: glycine binding site of the NMDA receptor (Rattus norvegicus, UniProt P35439); assay: 1 μM glycine-stimulated [^3 H]-MK801 binding assay (glycine binding assay); conditions: for potency relative to DCK: DCK = 5,7-dichlorokynurenic acid; for binding to the glycine receptor / selectivity for the glycine receptor: in words
[2] = in words; cited from earlier work
[3] = in words; cited from earlier work; remark: listed apart in the source
[4] = system: glycine binding site of the NMDA receptor; conditions: cited from earlier work
[5] = cited from earlier work; for PCP-like behavioral side effects: in words
[6] = pigeons; cited from earlier work
[7] = target: PCP receptor; conditions: Wong et al. 1986; cited from earlier work
[8] = mouse maximum electroshock seizure model (i.p.); assay type: in vivo; conditions: 70 mg/kg i.p. in DMSO, 1 hour before stimulus, 10 mice
Experimental: 5,7-Dichloro-1,2,3,4-tetrahydroquinoline-2,3,4-trione-3-oxime was evaluated for anticonvulsant activity after i.p. administration in the mouse maximum electroshock seizure model. Mice, 30-35 g (male) were injected i.p. with 70 mg/kg of the drug dissolved in DMSO (1 ul/g). Ten mice each were used in the drug and control groups. The control group was injected with an equal volume of DMSO. Seizures were elicited by stimulation with corneal electrodes. The stimulation parameters for eliciting the seizures were as follows: 50 mA, 60 pulses/second square wave, 0.8 ms pulse width, 0.2 sec length of stimulus. Under these conditions, 100% of control animals developed tonic hindlimb extension immediately after the corneal electrical stimulation. A Hugo Basile electroshock seizure stimulator was used for these experiments. The seizure stimulus was applied 1 hour after injection of the drug.

[9] = Table 1, glycine binding site, read-out: Ki Gly

CC(=O)ON=C1C(=O)Nc2cc(Cl)cc(Cl)c2C1=O [Compound 18b, 5,7-Dichloro-1,2,3,4-tetrahydroquinoline-2,3,4-trione-3-acetyloxime]
potency relative to DCK [1]: 142 % of DCK
Ki [1, 9]: 0.15 µM
Ki ([1]; glycine/NMDA receptor, read-out: Ki value): 0.16 µM

COc1ccc2c(c1)[C@]13CCCC[C@@H]1[C@H](C2)N(C)CC3 [dextromethorphan]
neuroprotective efficacy [2]: neuroprotective efficacy both in vitro and in vivo

O=C(O)c1cc2ccccc2[nH]1 [indole-2-carboxylic acid]
penetration of the blood/brain barrier [3]: cannot penetrate the blood/brain barrier
receptor binding affinity in vitro ([4]; in words): relatively high receptor binding affinity in vitro

O=C1Nc2ccc(Cl)c(Cl)c2C(=O)C1=NO [Compound 17d, 5,6-Dichloro-1,2,3,4-tetrahydroquinoline-2,3,4-trione-3-oxime]
Ki [1]: 0.36 µM
potency relative to DCK [1]: about 55 % of DCK

O=C(O)[C@@H]1C[C@H](CP(=O)(O)O)CCN1 [CGS 19755]
neuroprotective efficacy [2]: have neuroprotective efficacy
PCP-like behavioral side effects [5]: adverse PCP-like behavioral side effects

c1ccc(C2(N3CCCCC3)CCCCC2)cc1 [PCP, phencyclidine]
neuroprotective efficacy [2]: neuroprotective efficacy both in vitro and in vivo
katalepsy [6]: characteristic katalepsy in pigeons
behavioral excitation (hyperlocomotion) ([5]; rodents): behavioral excitation

O=C1Nc2ccccc2C(=O)C1=NO [Compound 17a, 1,2,3,4-Tetrahydroquinoline-2,3,4-trione-3-oxime]
Ki [1]: 20 µM
potency relative to DCK [1]: 1.3 % of DCK
binding to the glycine receptor [1]: high binding
selectivity for the glycine receptor [1]: highly selective

NC1CCN(O)C1=O (racemic) [HA-966]
penetration of the blood/brain barrier [3]: sufficiently penetrates the blood/brain barrier
agonism and affinity at the glycine binding site ([4]; in words): partial agonist with micromolar affinity for the glycine binding site

C[C@]12N[C@H](Cc3ccccc31)c1ccccc12 [MK-801]
Kd [7]: ~0.003 µM
neuroprotective efficacy [2]: neuroprotective efficacy both in vitro and in vivo
PCP-like behavioral side effects [5]: adverse PCP-like behavioral side effects

O=C(O)[C@@H]1C[C@H]2C[C@@H](CP(=O)(O)O)CC[C@H]2CN1 [LY274614]
neuroprotective efficacy [2]: have neuroprotective efficacy

O=C1Nc2cc(Cl)cc(Cl)c2C(=O)C1=NO [Compound 17b, 5,7-Dichloro-1,2,3,4-tetrahydroquinoline-2,3,4-trione-3-oxime]
prevention of seizures [8]: prevented seizures from occurring in out of 10 animals
Ki [1]: 0.02 µM
potency relative to DCK [1]: 1126 % of DCK
times more active than the unsubstituted compound 17a ([1]; Ki ratio versus 17a): about 1000 times

O=C1Nc2cc(Cl)c(Cl)c(Cl)c2C(=O)C1=NO [Compound 17e, 5,6,7-Trichloro-1,2,3,4-tetrahydroquinoline-2,3,4-trione-3-oxime]
Ki [1]: 0.05 µM
potency relative to DCK [1]: about 400 % of DCK

O=C1Nc2cc(Cl)c(Cl)cc2C(=O)C1=NO [Compound 17c, 6,7-Dichloro-1,2,3,4-tetrahydroquinoline-2,3,4-trione-3-oxime]
Ki [1]: 0.05 µM
potency relative to DCK [1]: 439 % of DCK

O=C(O)c1cc(O)c2c(Cl)cc(Cl)cc2n1 [5,7-dichlorokynurenic acid]
receptor binding affinity in vitro ([4]; in words): relatively high receptor binding affinity in vitro

CNC1(c2ccccc2Cl)CCCCC1=O (centres unmarked) [ketamine]
neuroprotective efficacy [2]: neuroprotective efficacy both in vitro and in vivo

O=C1Nc2ccccc2C(=NO)C1=O [Compound 14a, 1,2,3,4-Tetrahydroquinoline-2,3,4-trione-4-oxime]
IC50 ([1]; 1 μM glycine): 18.4 µM
potency relative to DCK [1]: 14 % of DCK
Ki [1, 9]: 1.7 µM
binding to the glycine receptor [1]: high binding
selectivity for the glycine receptor [1]: highly selective

NCC(=O)O [glycine]
Kd ([4]; used in Cheng and Prusoff equation, read-out: known affinity of glycine for the glycine binding site): 0.1 µM

O=C(O)c1cc(O)c2ccc(Cl)cc2n1 [7-Cl-kynurenic acid]
penetration of the blood/brain barrier [3]: cannot penetrate the blood/brain barrier
receptor binding affinity in vitro ([4]; in words): relatively high receptor binding affinity in vitro
